Source: patent US5397781A, “Pyrimidine derivatives” (Mochida Pharmaceutical Company, Limited, priority 1992, dated 1995)

Key:
serum total cholesterol = assay: Hypocholesterolemic effect on cholesterol feeding rats; assay type: in vivo, male Wistar rats; conditions: Rattus norvegicus, oral, high cholesterol diet rats, read-out: % reduction of serum total cholesterol; for inhibition in vivo at 10 mg/kg: 10 mg/kg/day
Protocol: Hypocholesterolemic effect on cholesterol feeding rats. Male Wistar rats aged 7 weeks old were fed a diet (CE®) supplemented with 2%(w/w) cholesterol, 0.5%(w/w) sodium cholate, 10%(w/w) lard, 0.2%(w/w) propylthiouracyl and 5%(w/w) sucrose, for 3 days. Following 3 days, the compounds of the present invention were administered orally, and the animals were maintained with the high cholesterol diet. On the next day of final drug administration, blood was drown and serum total cholesterol-levels were measured enzymatically by autoanalyzer. CL277082 was used as a reference compound.

male Wistar rats = assay: Acute toxicity; assay type: in vivo; conditions: 7 days observation
Excerpt: The pyrimidine derivatives of the present invention were examined for acute toxicity by using male Wistar rats fasted over night aged 7 weeks old.

macrophages = assay: Inhibitory effect on cholesteryl ester accumulation in macrophages; assay type: cell-based, mouse (ddy-family male mice); conditions: Macrophage; mouse peritoneal macrophages, β-VLDL, [3H]oleic acid, 3 hrs; read-out: Inhibition activity on cholesteryl ester accumulation (IC50 grade)
Protocol: Inhibitory effect on cholesteryl ester accumulation in macrophages.
Namely resident peritoneal cells suspended in phosphate-buffered saline (PBS) were plated in plastic Petri dishes (35 mm×10 mm) at a density of 2×10^6 cells. The adherent macrophages were cultured overnight at 37° C. in Dalbecco's modified Eagle medium (DME) containing 10% fetal bovine serum (FCS) under humidified 5% CO2. […] After discarding the medium, each macrophage monolayer was washed with PBS and lipids were extracted with hexane/isopropyl alcohol (3:2). Cholesteryl esters in the extract were separated by thin-layer chromatography and the radioactivity was measured by liquid scintillation counter.

ACAT = target: T1, ACAT (Rattus norvegicus, UniProt Q7TQM4); assay: Inhibitory effect on microsomal ACAT activity in rat liver; assay type: biochemical; conditions: rat liver microsomes; read-out: IC50 (50% inhibition of cholesterol esterification)
T1 construct: Liver microsomes as an enzyme sample of ACAT were prepared from overnight-fasted male rats; from tissue; host or cells: liver of overnight-fasted male rats, 6 weeks old; microsomes
T1 sequence (Q7TQM4 1-524): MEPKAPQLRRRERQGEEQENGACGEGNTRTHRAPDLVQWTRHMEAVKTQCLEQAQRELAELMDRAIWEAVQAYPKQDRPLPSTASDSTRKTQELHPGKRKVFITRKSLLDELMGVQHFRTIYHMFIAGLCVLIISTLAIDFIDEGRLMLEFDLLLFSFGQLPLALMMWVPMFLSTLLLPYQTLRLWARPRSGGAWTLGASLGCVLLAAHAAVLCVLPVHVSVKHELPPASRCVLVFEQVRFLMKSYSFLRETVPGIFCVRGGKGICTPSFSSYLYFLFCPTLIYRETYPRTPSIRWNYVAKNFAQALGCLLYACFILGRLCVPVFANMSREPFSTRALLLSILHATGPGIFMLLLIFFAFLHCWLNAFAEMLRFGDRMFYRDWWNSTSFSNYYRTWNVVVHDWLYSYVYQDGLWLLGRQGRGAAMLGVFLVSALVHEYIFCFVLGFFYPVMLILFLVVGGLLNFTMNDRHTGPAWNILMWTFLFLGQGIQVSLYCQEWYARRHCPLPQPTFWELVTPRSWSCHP

SMILES	inhibition in vivo at 10 mg/kg (serum total cholesterol) [%]	lethal incident (acute toxicity) (male Wistar rats; single oral dose 1 g/kg)	IC50 (macrophages) [nM]	IC50 (ACAT) [nM]	inhibition in vivo at 30 mg/kg (serum total cholesterol; 30 mg/kg/day) [%]	lethal incident (acute toxicity) (male Wistar rats; single oral dose 2 g/kg)
CCCCCCN(CCCC(=O)Nc1c(SC)nc(OC)nc1N(CC)CC)c1ccccc1 [Example 233, N-[4-(N,N-diethylamino)-2-methoxy-6-methylthiopyrimidin-5-yl]-4-(N-hexyl-N-phenylamino)butanamide]	76	no lethal incident was observed	–	–	–	–
CCCCN(CCCC)c1nc(C)nc(SC)c1NC(=O)CCCCN(CCC)c1ccccc1 [Example 247, N-[4-(N,N-dibutylamino)-2-methyl-6-methylthiopyrimidin-5-yl]-5-(N-phenyl-N-propylamino)pentanamide]	76	no lethal incident was observed	10 to 100	16	–	–
CCCCCCN(CCCC(=O)Nc1c(SCC)nc(C)nc1N(CC)CC)c1ccccc1 [Example 260, N-[4-(N,N-dietylamino)-6-ethylthio-2-methylpyrimidin-5-yl]-4-(N-hexyl-N-phenylamino)butanamide]	70	no lethal incident was observed	–	–	–	–
CCCCCCN(CCCC(=O)Nc1c(S)nc(C)nc1N(CC)CC)c1ccccc1 [Example 155, N-[4-(N,N-diethylamino)-6-mercapto-2-methylpyrimidin-5-yl]-4-(N-hexyl-N-phenylamino)butanamide]	66	no lethal incident was observed	–	88	–	–
CCCN(CCCC(=O)Nc1c(S)nc(C)nc1N(CCC)c1ccccc1)c1ccccc1 [Example 143, N-[4-mercapto-2-methyl-6-(N-phenyl-N-propylamino)pyrimidin-5-yl]-4-(N-phenyl-N-propylamino)butanamide]	–	–	1000 to 10000	80	20	no lethal incident was observed
CCCCN(CCCC)c1nc(C)nc(OCC)c1NC(=O)CCCCN(CCC)c1ccccc1 [Example 196, N-[4-(N,N-dibutylamino)-6-ethoxy-2-methylpyrimidin-5-yl]-5-(N-phenyl-N-propylamino)pentanamide]	48	no lethal incident was observed	–	–	–	–
